Test results taken from PubChem BioAssay AID1963973 (Molecular Pharmacology Branch, DTP, NCI, 2024).

Tested on: 883617-216-R-J1-PDC tumor spheroids, viability
Assay: Anticancer human tumor 883617-216-R-J1-PDC patient-derived bladder carcinoma cell line growth inhibition [PI3K]
Conditions: spheroids with HUVEC and MSC; for IC50: curve of first compound; for viability, T/C: stronger effect = lower value
How it was run: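 Multi-cell spheroids combine tumor cells with HUVEC and human MSCs, treated with targeted agents alone or with inavolisib, alpelisib, duvelisib or copanlisib. Concentrations fall in half-log steps from at or near clinical Cmax, or from 10 microM where Cmax is unknown; viability read-out.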

[1] = second compound 0.00316 µM, first compound 0.0316 µM
[2] = second compound 0.00316 µM, first compound 0.1 µM
[3] = second compound 0.00316 µM, first compound 0.316 µM
[4] = second compound 0.00316 µM, first compound 1 µM
[5] = second compound 0.00316 µM, first compound 3.16 µM
[6] = second compound 0.00316 µM, first compound 10 µM
[7] = second compound 0.01 µM, first compound 0.0316 µM
[8] = second compound 0.01 µM, first compound 0.1 µM
[9] = second compound 0.01 µM, first compound 0.316 µM
[10] = second compound 0.01 µM, first compound 1 µM
[11] = second compound 0.01 µM, first compound 3.16 µM
[12] = second compound 0.01 µM, first compound 10 µM
[13] = second compound 0.0316 µM, first compound 0.0316 µM
[14] = second compound 0.0316 µM, first compound 0.1 µM
[15] = second compound 0.0316 µM, first compound 0.316 µM
[16] = second compound 0.0316 µM, first compound 1 µM
[17] = second compound 0.0316 µM, first compound 3.16 µM
[18] = second compound 0.0316 µM, first compound 10 µM
[19] = second compound 0.1 µM, first compound 0.0316 µM
[20] = second compound 0.1 µM, first compound 0.1 µM
[21] = second compound 0.1 µM, first compound 0.316 µM
[22] = second compound 0.1 µM, first compound 1 µM
[23] = second compound 0.1 µM, first compound 3.16 µM
[24] = second compound 0.1 µM, first compound 10 µM
[25] = second compound 0.316 µM, first compound 0.0316 µM
[26] = second compound 0.316 µM, first compound 0.1 µM
[27] = second compound 0.316 µM, first compound 0.316 µM
[28] = second compound 0.316 µM, first compound 1 µM
[29] = second compound 0.316 µM, first compound 3.16 µM
[30] = second compound 0.316 µM, first compound 10 µM
[31] = second compound 1 µM, first compound 0.0316 µM
[32] = second compound 1 µM, first compound 0.1 µM
[33] = second compound 1 µM, first compound 0.316 µM
[34] = second compound 1 µM, first compound 1 µM
[35] = second compound 1 µM, first compound 3.16 µM
[36] = second compound 1 µM, first compound 10 µM
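Note: spheroids exposed to agents for 7 days before the viability read.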

Which results are given for `C=CC(=O)N1CCN(c2nc(=O)n(-c3c(C)ccnc3C(C)C)c3nc(-c4c(O)cccc4F)c(F)cc23)C(C)C1` (stereo unspecified) + CC(Nc1ccc2c(c1)OCCn1cc(N3C(=O)OCC3C(F)F)nc1-2)C(N)=O?
IC50 (second compound 0.00316 µM): > 10 µM; IC50 (second compound 0.01 µM): 0.0316 µM; IC50 (second compound 0.0316 µM): < 0.0316 µM; IC50 (second compound 0.1 µM): < 0.0316 µM; IC50 (second compound 0.316 µM): < 0.0316 µM; IC50 (second compound 1 µM): < 0.0316 µM; viability, T/C [1]: 59%; viability, T/C [2]: 49.2%; viability, T/C [3]: 52.5%; viability, T/C [4]: 70.5%; viability, T/C [5]: 70.8%; viability, T/C [6]: 56.5%; viability, T/C [7]: 57.8%; viability, T/C [8]: 51.8%; viability, T/C [9]: 47.7%; viability, T/C [10]: 44.5%; viability, T/C [11]: 56.5%; viability, T/C [12]: 61.1%; viability, T/C [13]: 45%; viability, T/C [14]: 38.2%; viability, T/C [15]: 30.8%; viability, T/C [16]: 40.9%; viability, T/C [17]: 42.6%; viability, T/C [18]: 49.7%; viability, T/C [19]: 25.3%; viability, T/C [20]: 21.6%; viability, T/C [21]: 19.3%; viability, T/C [22]: 25.7%; viability, T/C [23]: 30.4%; viability, T/C [24]: 25.3%; viability, T/C [25]: 13.5%; viability, T/C [26]: 13.4%; viability, T/C [27]: 11%; viability, T/C [28]: 14.6%; viability, T/C [29]: 15.5%; viability, T/C [30]: 17.3%; viability, T/C [31]: 10.3%; viability, T/C [32]: 9.98%; viability, T/C [33]: 7.7%; viability, T/C [34]: 7.88%; viability, T/C [35]: 12.1%; viability, T/C [36]: 9.67%

How did the IC50 (second compound 0.00316 µM) turn out when `Cn1ncnc1[C@H]1c2n[nH]c(=O)c3cc(F)cc(c23)N[C@@H]1c1ccc(F)cc1` + CC(Nc1ccc2c(c1)OCCn1cc(N3C(=O)OCC3C(F)F)nc1-2)C(N)=O was run?
Its IC50 is over 0.1 µM.

And the IC50 (second compound 0.01 µM)?
The IC50 was over 0.1 µM.

And the IC50 (second compound 0.0316 µM)?
Its IC50 is 0.00536 µM.

What about the IC50 (second compound 0.1 µM) of the same compound?
The IC50 was under 0.000316 µM.

What about the IC50 (second compound 0.316 µM) of the same compound?
The IC50 was under 0.000316 µM.

What about the IC50 (second compound 1 µM) of the same compound?
Its IC50 is under 0.000316 µM.

What about the viability, T/C (second compound 0.00316 µM, first compound 0.000316 µM) of the same compound?
The viability, T/C was 84.3%.

And the viability, T/C (second compound 0.00316 µM, first compound 0.001 µM)?
Its viability, T/C is 83.1%.

What about the viability, T/C (second compound 0.00316 µM, first compound 0.00316 µM) of the same compound?
The viability, T/C was 89%.

What about the viability, T/C (second compound 0.00316 µM, first compound 0.01 µM) of the same compound?
Its viability, T/C is 78.3%.

And the viability, T/C [1]?
The viability, T/C was 63%.

What about the viability, T/C [2] of the same compound?
The viability, T/C was 63.2%.

What about the viability, T/C (second compound 0.01 µM, first compound 0.000316 µM) of the same compound?
The viability, T/C was 83%.

And the viability, T/C (second compound 0.01 µM, first compound 0.001 µM)?
Its viability, T/C is 94.6%.

What about the viability, T/C (second compound 0.01 µM, first compound 0.00316 µM) of the same compound?
The viability, T/C was 79.3%.

What about the viability, T/C (second compound 0.01 µM, first compound 0.01 µM) of the same compound?
Its viability, T/C is 69%.

And the viability, T/C [7]?
The viability, T/C was 64.9%.

And the viability, T/C [8]?
The viability, T/C was 59.5%.

And the viability, T/C (second compound 0.0316 µM, first compound 0.000316 µM)?
The viability, T/C was 69.6%.

What about the viability, T/C (second compound 0.0316 µM, first compound 0.001 µM) of the same compound?
The viability, T/C was 79.7%.

What about the viability, T/C (second compound 0.0316 µM, first compound 0.00316 µM) of the same compound?
Its viability, T/C is 54.2%.

And the viability, T/C (second compound 0.0316 µM, first compound 0.01 µM)?
Its viability, T/C is 50%.

And the viability, T/C [13]?
The viability, T/C was 44.2%.

And the viability, T/C [14]?
The viability, T/C was 40.6%.

And the viability, T/C (second compound 0.1 µM, first compound 0.000316 µM)?
Its viability, T/C is 43.4%.

What about the viability, T/C (second compound 0.1 µM, first compound 0.001 µM) of the same compound?
The viability, T/C was 45.1%.

And the viability, T/C (second compound 0.1 µM, first compound 0.00316 µM)?
Its viability, T/C is 43.7%.

And the viability, T/C (second compound 0.1 µM, first compound 0.01 µM)?
Its viability, T/C is 38.2%.

What about the viability, T/C [19] of the same compound?
Its viability, T/C is 32.1%.

What about the viability, T/C [20] of the same compound?
Its viability, T/C is 31.9%.

And the viability, T/C (second compound 0.316 µM, first compound 0.000316 µM)?
Its viability, T/C is 25.7%.

And the viability, T/C (second compound 0.316 µM, first compound 0.001 µM)?
Its viability, T/C is 25.3%.

And the viability, T/C (second compound 0.316 µM, first compound 0.00316 µM)?
Its viability, T/C is 25.8%.

What about the viability, T/C (second compound 0.316 µM, first compound 0.01 µM) of the same compound?
Its viability, T/C is 28.6%.

And the viability, T/C [25]?
Its viability, T/C is 22.8%.

And the viability, T/C [26]?
The viability, T/C was 19.1%.

And the viability, T/C (second compound 1 µM, first compound 0.000316 µM)?
Its viability, T/C is 18.5%.

What about the viability, T/C (second compound 1 µM, first compound 0.001 µM) of the same compound?
Its viability, T/C is 15.8%.

What about the viability, T/C (second compound 1 µM, first compound 0.00316 µM) of the same compound?
Its viability, T/C is 13%.

What about the viability, T/C (second compound 1 µM, first compound 0.01 µM) of the same compound?
Its viability, T/C is 14.6%.

And the viability, T/C [31]?
Its viability, T/C is 13.5%.

And the viability, T/C [32]?
The viability, T/C was 10.8%.

For `CC1(C)CCC(CN2CCN(c3ccc(C(=O)NS(=O)(=O)c4ccc(NCC5CCOCC5)c([N+](=O)[O-])c4)c(Oc4cnc5[nH]ccc5c4)c3)CC2)=C(c2ccc(Cl)cc2)C1` + CC(Nc1ccc2c(c1)OCCn1cc(N3C(=O)OCC3C(F)F)nc1-2)C(N)=O, which IC50 (second compound 0.00316 µM) is on record?
The IC50 was 5.33 µM.

And the IC50 (second compound 0.01 µM)?
Its IC50 is 4.58 µM.

What about the IC50 (second compound 0.0316 µM) of the same compound?
Its IC50 is 3.77 µM.

And the IC50 (second compound 0.1 µM)?
The IC50 was under 0.0316 µM.

And the IC50 (second compound 0.316 µM)?
Its IC50 is under 0.0316 µM.

And the IC50 (second compound 1 µM)?
The IC50 was under 0.0316 µM.

And the viability, T/C [1]?
Its viability, T/C is 83.5%.

And the viability, T/C [2]?
The viability, T/C was 61.8%.

And the viability, T/C [3]?
Its viability, T/C is 97.3%.

What about the viability, T/C [4] of the same compound?
The viability, T/C was 107%.

And the viability, T/C [5]?
The viability, T/C was 90.2%.

And the viability, T/C [6]?
The viability, T/C was 4.2%.

And the viability, T/C [7]?
Its viability, T/C is 86.6%.

What about the viability, T/C [8] of the same compound?
Its viability, T/C is 74.8%.

And the viability, T/C [9]?
Its viability, T/C is 87.8%.

What about the viability, T/C [10] of the same compound?
The viability, T/C was 82.8%.

What about the viability, T/C [11] of the same compound?
The viability, T/C was 71.8%.

What about the viability, T/C [12] of the same compound?
The viability, T/C was 3.91%.

What about the viability, T/C [13] of the same compound?
Its viability, T/C is 66.7%.

And the viability, T/C [14]?
Its viability, T/C is 51.6%.

And the viability, T/C [15]?
The viability, T/C was 65.5%.

And the viability, T/C [16]?
The viability, T/C was 65.4%.

And the viability, T/C [17]?
The viability, T/C was 57.8%.

What about the viability, T/C [18] of the same compound?
The viability, T/C was 5.24%.

And the viability, T/C [19]?
The viability, T/C was 29.4%.

And the viability, T/C [20]?
Its viability, T/C is 36.4%.

What about the viability, T/C [21] of the same compound?
The viability, T/C was 41.5%.

And the viability, T/C [22]?
The viability, T/C was 45.8%.

And the viability, T/C [23]?
The viability, T/C was 47.5%.

And the viability, T/C [24]?
Its viability, T/C is 2.96%.

What about the viability, T/C [25] of the same compound?
The viability, T/C was 21.2%.

And the viability, T/C [26]?
The viability, T/C was 22.1%.

What about the viability, T/C [27] of the same compound?
Its viability, T/C is 22.1%.

And the viability, T/C [28]?
The viability, T/C was 25.4%.

What about the viability, T/C [29] of the same compound?
The viability, T/C was 26.4%.

What about the viability, T/C [30] of the same compound?
The viability, T/C was 2.64%.

What about the viability, T/C [31] of the same compound?
The viability, T/C was 17.2%.

And the viability, T/C [32]?
The viability, T/C was 13%.

What about the viability, T/C [33] of the same compound?
The viability, T/C was 15.3%.

What about the viability, T/C [34] of the same compound?
Its viability, T/C is 14.3%.

And the viability, T/C [35]?
The viability, T/C was 21.6%.

And the viability, T/C [36]?
The viability, T/C was 1.47%.
